Measurements as given in article PMC10600165 (Nature Communications, 2023).

Molecular target: HK68 (human A/H3N2 HA) (Influenza A virus (A/Hong Kong/1/1968(H3N2)), UniProt Q91MA7)
Assay type: binding

Chain of HK68 (human A/H3N2 HA) (Influenza A virus (A/Hong Kong/1/1968(H3N2)), UniProt Q91MA7) (Q91MA7 17-530 limits assumed): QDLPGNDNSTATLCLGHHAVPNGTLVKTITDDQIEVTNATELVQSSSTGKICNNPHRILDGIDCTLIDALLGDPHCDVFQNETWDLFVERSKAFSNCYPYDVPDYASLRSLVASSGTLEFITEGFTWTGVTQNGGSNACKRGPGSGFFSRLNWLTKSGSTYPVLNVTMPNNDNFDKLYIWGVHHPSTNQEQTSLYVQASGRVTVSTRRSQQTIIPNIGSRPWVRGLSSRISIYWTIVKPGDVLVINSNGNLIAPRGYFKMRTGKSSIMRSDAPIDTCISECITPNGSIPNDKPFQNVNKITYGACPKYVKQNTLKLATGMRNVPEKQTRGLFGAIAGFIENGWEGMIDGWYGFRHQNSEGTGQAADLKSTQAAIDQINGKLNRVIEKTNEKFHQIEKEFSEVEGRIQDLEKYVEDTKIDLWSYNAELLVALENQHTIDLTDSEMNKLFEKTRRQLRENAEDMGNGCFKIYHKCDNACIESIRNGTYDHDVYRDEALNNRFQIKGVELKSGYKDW

How did the “glycan microarray, fluorescence” value turn out when `CC(=O)N[C@H]1[C@H](OCCCCCNC(=O)CCCC[C@@H]2SC[C@@H]3NC(=O)N[C@@H]32)O[C@H](CO)[C@@H](O[C@@H]2O[C@H](CO[C@]3(C(=O)O)C[C@H](OC(C)=O)[C@@H](NC(C)=O)[C@H]([C@H](O)[C@H](O)CO)O3)[C@H](O)[C@H](O)[C@H]2O)[C@@H]1O` [compound 6] was run?
Its value is “specific for 4-O-acetylated Neu5Ac and does not depend on linkage type”.
